Experimental data as given in patent publication US20050180982A1, “Cadherin-11 expression, an assay and treatment for cellular invasiveness” (THE UNIVERSITY OF BRITISH COLUMBIA, priority 1998, published 2005).

What was measured:
human decidual cells [1] = assay: Effect on primary cultures of human decidual cells; design: cell interactions and attachment: dose or concentration left out as unconfirmed; settings: for 24 hours
villous cytotrophoblasts [2] = assay: Reversibility of oligonucleotide effects on villous cytotrophoblasts; type: cell-based, human; settings: 48 hours with oligonucleotide, washed, further 24 hours
Procedure: To determine whether the effects of OB-1 on villous cytotrophoblasts are reversible, cells were cultured in the presence of OB-1 or OB-3 for 48 hours. The cells were washed thoroughly with PBS. The culture medium was then replaced and the cells cultured for a further 24 hours. […] The majority of cells (90%) detached from the culture and dish. Cad-11 was not detected in the remaining cells.

human decidual cells [3] = system: human decidual cells
villous cytotrophoblasts [4] = assay: P4 and hCG in culture medium of villous cytotrophoblasts (functional differentiation); type: cell-based, human; settings: compared with OB-3 treated cells
Procedure: To determine whether reduced cad-11 expression in villous cytotrophoblasts would affect the functional differentiation of the primary cell cultures, concentrations of P4 and hCG were measured in the culture medium. The number of cells present in these cell cultures was determined by DNA content.

[5] = system: cad-11 in cytotrophoblasts isolated from term placenta; assay: Western blot of cad-11 in term placenta cytotrophoblasts treated with oligonucleotide; type: cell-based, human; settings: 5 NI, further 24 or 48 hours
Procedure: (§1) Cellular aggregation in these cultures is observed after approximately 12 hours, with syncytial structures being observed after approximately 24 hours. After 72 hours, multinucleated syncytium is the predominant cell feature in these cultures. As described above, the terminal differentiation and fusion of these cells is associated with an increase in cad-11 mRNA and protein expression levels and a concomitant decrease in E-cad expression.
(§2) The effects of OB-1 on the differentiation of these trophoblasts isolated from term placenta was determined. Cytotrophoblasts were cultured for 0, 6, 12 or 24 hours before being treated with either OB-1 or OB-3 (5 NI). The cultures were maintained for a further 24 or 48 hours, after which the cells were harvested for Western blot analysis.

[6] = system: Cos-1 cells transfected with the steroid acute regulatory protein; assay: Non-specific effects on cell number and steroidogenic capacity in Cos-1 cells; type: cell-based; design: cell number (Coulter cell counter): dose or concentration left out as unconfirmed
Procedure: Non-specific effects of the antisense oligonucleotides on cell viability and the steroidogenic capacity of cells was determined using Cos-1 cells transfected with the steroid acute regulatory protein (from Dr. J. F. Strauss, III. University of Pennsylvania, Philadelphia, Pa.). […] The COS-1 cells were cultured in the presence or absence of varying concentrations of OB-1 OR OB-3 (0.5-5 M) for 48 hours. The cell number present in each culture was determined using a Coulter™ cell counter and P4 concentrations present in the culture medium using a Progesterone RIA™ kit. As determined by these parameters.

[7] = system: PC3 cells treated with TGF-1; assay: Effect of oligonucleotides on PC3 cells treated with TGF-1; design: cell interactions and attachment: dose or concentration left out as unconfirmed; settings: for 24 hours
[8] = system: cad-11 RNA transcript in human granulosa cells; assay: Specificity of antisense in granulosa cells, Northern blot, cad-11 probe; type: cell-based; design: dose or concentration left out as unconfirmed; settings: 24 hours, dose-dependent manner for OB-1
Procedure: (§3) In order to determine the specificity of OB-1, the effect of OB-1 was determined in human granulosa cells. Human granulosa cells express three cadherin subtypes (cad-11, cad-6 and N-cad) as they undergo spontaneous luteinization in culture. Granulosa cells which had been cultured for 36 hours were treated with OB-1 or OB-3 (0.5-5 M). The cultures were maintained for a further 24 hours, after which the cells were harvested for Northern analysis. Northern blots were probed with cad-11, cad-6, or N-cadherin (neural cadherin) cDNA probes as previously described. OB-1 caused a reduction in the levels of the cad-11 RNA transcript in a dose-dependent manner but had no effect on cad-6 or N-cadherin mRNA levels. In contrast.

[9] = system: cytotrophoblasts isolated from term placenta; assay: Morphology of cytotrophoblasts by light microscopy and indirect immunofluorescence; type: cell-based, human
Excerpt: The effect of OB-1 and OB-3 on the morphology of the cytotrophoblast was examined by light microscopy and indirect immunofluoresence.

[10] = system: Villous cytotrophoblasts isolated from the human term placenta, cultured 72 hours
[11] = system: cad-11 in decidual explants; assay: Western blot of cad-11 in decidual explants; type: cell-based, human; design: dose or concentration left out as unconfirmed
Procedure: Co-cultures of decidua parietalis and villous placenta were established on a three-dimensional gel of rat tail collagen. The decidua and the villous tissue were cut into 1-2 mm cubes, explants were placed in 35 nun culture dishes containing 0.1 ml of the collagen mixture. After the gel had formed, a piece of villous tissue, suspended in 0.05 ml of culture medium was placed on to the exposed decidual surface. After 2 hours, the plates were flooded with culture medium. Stable adhesion between the villous and decidual tissues occurred within 48 hours. Samples are harvested after 48, 72, or 96 hours of culture. Tissues were embedded in OCT compound, snap frozen, and frozen section prepared. Blocks containing the co-cultures were cut in-full in order to obtain information about the three dimensional aspect of the contact sites. Contact sites were identified by hematoxylin staining and confirmed by immunostaining for cytokeratin. In the areas of contact, there was cytotrophoblast layering leading to localized erosion of the syncytial trophoblast and the formation of an extravillous column, which penetrates the underlying decidual explant.
In order to determine whether the cad-11 antisense oligonucleotides could decrease cad-11 expression in tissue explants, decidual explants were cultured in the presence of OB-1 or OB-3 (5 M) for 24 hours.

[12] = system: N-cadherin mRNA in human granulosa cells; assay: Specificity of antisense in granulosa cells, Northern blot, N-cadherin probe; type: cell-based; settings: 0.5-5 M, 24 hours
Procedure: as §3

[13] = system: cad-6 mRNA in human granulosa cells; assay: Specificity of antisense in granulosa cells, Northern blot, cad-6 probe; type: cell-based; settings: 0.5-5 M, 24 hours
Procedure: as §3

[14] = system: BeWo choriocarcinoma cells; assay: BeWo choriocarcinoma cells cultured with cAMP, differentiation and fusion; type: cell-based
[15] = system: PC3 cells treated with TGF-1
[16] = system: E-cad in cytotrophoblasts isolated from term placenta; assay: Western blot of E-cad in term placenta cytotrophoblasts treated with oligonucleotide; type: cell-based, human; settings: 5 NI, further 24 or 48 hours
Procedure: as §1, §2

## OB-1: cad-11 antisense oligonucleotide, 18 mer, phosphothiorate: GGC GGC TTG TAA ACA GTA (SEQ ID NO:1) (antisense GGCGGCTTGTAAACAGTA; all phosphorothioate, sugars by position and methylation of C not given here; listed as Homo sapiens)
Human decidual cells [1]
  cell interactions and attachment: lose interactions with one another and detach from the plastic in a dose-dependent manner
Villous cytotrophoblasts [2]
  cad-11 in the remaining cells: not detected
  cell viability after wash-out: no longer viable
  cells detached from the culture dish: 90%
Human decidual cells [3]
  viability by trypan blue staining: no longer viable
Villous cytotrophoblasts [4]
  levels of P4 in the culture medium: significantly lower
  levels of hCG in the culture medium: significantly lower
[5]
  cad-11 expression with time in culture: failed to up-regulate
[6]; 0.5-5 M for 48 hours
  steroidogenic capacity (P4 concentrations in culture medium, RIA): did not have a significant effect
[6]; for 48 hours
  cell number (Coulter cell counter): did not have a significant effect
[7]
  cell interactions and attachment: lose interactions with one another, and detach from the plastic in a dose-dependent manner
[8]
  levels of the cad-11 RNA transcript: reduction
[9]; indirect immunofluorescence for E-cadherin
  composition of cellular structures formed (fusion): mononucleate cytotrophoblasts
[9]; light microscopy
  ability of the cytotrophoblasts to aggregate: did not appear to affect
[10]
  viability of syncytial structures (trypan blue): no longer viable
[10]; oligonucleotide added after 72 hours of culture, OB-1 for 24 hours
  structures observed (phase contrast microscopy): cellular debris
[11]
  cad-11 expression: significantly reduced
[12]
  N-cadherin mRNA levels: no effect
[13]
  cad-6 mRNA levels: no effect
[14]; cells cultured in the presence of cAMP for 12 hours
  cellular differentiation and fusion: inhibiting cellular differentiation and fusion
[14]; syncytial structures formed after 24 hours of cAMP
  membrane integrity of the syncytial structures: disrupted the membrane integrity
[15]
  viability by trypan blue staining: no longer viable
[16]
  E-cad levels: remained constant
